Test results taken from patent publication US20010006673A1, “LUTEIN- CONTAINING SUPPLEMENT AND PROCESS FOR ENHANCING IMMUNE RESPONSE IN ANIMALS” (priority 1998, published 2001).

Experiments:
Splenocytes = conditions: splenocytes from mice injected peritoneally; cited from earlier work
dogs = experiment: Delayed type hypersensitivity (skin induration) response in dogs; type: in vivo, Beagle dogs; conditions: for DTH response to PHA / DTH response to vaccine: dogs
Procedure: Skin induration response was assessed in all dogs on weeks 0, 6, and 12. Dogs were injected intradermally in the flank area with saline (8.5 g/L; control), an attenuated polyvalent vaccine containing canine distemper virus, canine adenovirus type-2, canine parainfluenza virus and parvovirus (Vanguard 5, Smithkline Beacham, West Chester, Pa.; specific antigen), and PHA (0.5 g/L; nonspecific antigen). The doses of vaccine and PHA used were previously determined to provide optimal skin response in Beagle dogs of similar age. The injection site was clipped and wiped with 70% ethyl alcohol. The injection volume was 100 μL. Skin induration was measured at 0, 24, 48 and 72 h post-injection with the aid of a pressure-sensitive digital micrometer (Mitsutoyo, Tokyo, Japan) and response was expressed as a percentage of skin thickness measured at 0 h.

[1] = system: Crandell feline kidney fibroblast; experiment: NK cytotoxicity assay, cats; type: in vivo, Tabby cats
Procedure: The Crandell feline kidney fibroblast was used as the target cell. Target cells were resuspended to 2×10^5 cells/mL and triplicate 100 μL aliquots were pipetted into a 96-well U-bottom plate (Costar, Cambridge, Mass.) and cells allowed to adhere. Isolated PBMC (effector cells) were then added to the target cells to achieve effector:target cell (E:T) ratios of 25:1, 12.5:1 and 6.25:1. The cell mixture was incubated for 8 hours after which 100 μL Rose Bengal (2.5 g/L in PBS; Sigma, St. Louis, Mo.) were added and incubated at room temperature for 5 minutes. Optical density was measured at 550 nm using an ELISA plate reader. The percentage of NK-specific lysis was calculated as follows:
Specific cytotoxicity (%)=100×{1−[(OD of target cells and effector cells−OD of effector cells)/(OD of target cells)]}

[2] = system: peripheral blood mononuclear cells (PBMC); experiment: Peripheral blood mononuclear cell proliferation, whole blood, cats; type: in vivo, Tabby cats
Procedure: Whole blood was used to analyze the mitogenic proliferative responsiveness of peripheral blood mononuclear cells (PBMC) to phytohemagglutinin (PHA), Con A and pokeweed mitogen (PWM) in order to mimic in vivo conditions. Heparinized whole blood was diluted 1:12 with RPMI-1640 containing 25 mM of Hepes, penicillin (100 U/mL) and streptomycin (100 μg/mL) (Sigma, St. Louis, Mo.) (hereafter termed complete medium). […] The mitogens were used at the following final concentrations previously determined to provide both maximal (the higher mitogen concentration) and suboptimal (the lower mitogen concentration) proliferation: PHA (1.25 and 0.25 μg/mL), Con A (2.5 and 0.5 μg/mL) or PWM (0.125 and 0.025 μg/mL). Tritiated thymidine uptake was measured by liquid scintillation and PBMC proliferation response was expressed as cpm of stimulated cultures corrected for cpm of unstimulated cultures.

[3] = system: lymphocyte subsets (CD3, CD4, CD8, MHC class II, CD21); experiment: Lymphocyte subpopulations by flow cytometry, cats; type: in vivo, Tabby cats
Procedure: Blood leukocytes were separated on Histopaque-1119 (Sigma, St. Louis, Mo.) and cells washed three times with phosphate-buffered saline (PBS, pH 7.4). Contaminating RBC were lysed with NH4Cl (8.4 g/L) and cell viability determined by trypan blue exclusion. Lymphocyte subsets were determined by FACScan flow cytometry (Becton Dickinson, San Jose, Calif.) immediately after cell preparation. Isolated PBMC were resuspended to 1×10^7 cells/mL phosphate buffered saline (PBS) supplemented with 2% gamma globulin-free serum, 5% goat serum and 0.2 g/L sodium azide (Baker, Phillipsburg, N.J.). For immunofluorescence analysis, 5×10^5 cells were incubated for 30 minutes on ice with a previously determined optimal concentration of mouse anti-cat primary monoclonal antibody. The antibodies were specific for the following lymphocyte subsets: total T cells (anti-CD3), T-helper cells (anti-CD4), T cytotoxic/suppressor cells (anti-CD8), lymphocytes expressing major histocompatibility complex (MHC) class II antigens (anti-MHC class II), and B cells (anti-CD21). Cells were then washed three times and incubated with a secondary antibody, fluorescein isothiocyanate (FITC)-conjugated goat F(ab′)2 anti-mouse IgG (H+L) (Caltag, Burlingame, Calif.) for 30 minutes on ice to visualize the bound antibody. Stained cells were fixed in 4% paraformaldehyde in preparation for acquisition. Appropriate negative controls were included to correct the level of background fluorescence. Fluorescence analysis was performed on lymphocytes gated by forward and side scatter. Data were expressed as a percentage of positive-staining cells corrected for cells stained nonspecifically with the secondary antibody.

[4] = system: Canine thyroid adenocarcinoma cells; experiment: NK cell cytotoxicity, dogs; type: in vivo, Beagle dogs
Procedure: Canine thyroid adenocarcinoma cells were used as target cells in assessing NK cell cytotoxic activity. This cell line was previously shown to be susceptible to killing by canine NK cell. Target cells were cultured in a T75 flask with 20 mL minimum essential medium (MEM; Sigma Chem. Co., St. Louis, Mo.) supplemented with 10% fetal calf serum (FC S), 100 U/mL of penicillin and 100 μg/mL of streptomycin. When confluent, target cells were trypsinized, washed 3 times and resuspended to 5×10^5 cells/mL in complete medium (RPMI-1640+10% FCS+100 U/mL of penicillin+100 μ/mL of streptomycin). Triplicate 100 μL aliquots of the target cells were pipetted into 96-well U-bottom plates (Costar, Cambridge, Mass.) and incubated for 8 hours to allow cell adherence. Lymphocytes (effector cells; 100 μL) isolated by percoll separation (as described above) were then added to the target cells to provide an effector:target cell (E:T) ratio of 10:1. After 10 hours of incubation at 37° C., 20 μl of a substrate containing 5 μg of 3-(4,5-dimethylthiazol-2-yl)-2,5-diphenyltetrazolium bromide (MTT) was added. […] Optical density was measured at 570 nm using a microplate reader. The percentage of NK cell-specific lysis was calculated as follows: Specific cytotoxicity (%)=100×{1−[(OD of target cells and effector cells−OD of effector cells)/(OD of target cells)]}

In the case of `CC1=C[C@H](O)CC(C)(C)[C@H]1/C=C/C(C)=C/C=C/C(C)=C/C=C/C=C(C)/C=C/C=C(C)/C=C/C1=C(C)C[C@@H](O)CC1(C)C` [lutein], the “Antibody response to T-dependent antigens” value (Splenocytes) is given as “enhanced”, the “DTH response to PHA vs unsupplemented dogs” value (dogs; dogs fed 20 mg lutein, week 12) is given as “significantly higher” and the “DTH response to PHA” value (dogs; week 6, 48 and 72 h) is given as “no significant treatment difference”. The “DTH response to vaccine” value (dogs; week 6, 48 and 72 h post-injection) was “dose-related”, the “DTH response to vaccine” value (dogs; week 6, 24 h) was “not significant” and the “DTH response to PHA” value (dogs; week 6, 24 h post-injection) was “dose-related”. The “DTH response to vaccine” value (dogs; week 12) was “no significant dietary effect”, the “DTH response to PHA” value (dogs; week 12, 24, 48 and 72 h, all doses) was “general dose-dependent increase” and the NK cell cytotoxicity ([1]; cats fed 1 mg lutein, week 12 (E:T of 6.25:1) and 8 (E:T of 25:1)) was “significantly higher”. The “NK cell cytotoxic activity” value ([1]; cats fed 10 mg lutein, week 8, significant with E:T ratios of 6.25:1 and 25:1) was “higher”, the NK cell cytotoxicity ([1]; cats, E:T ratio of 12.5:1) was “No significant treatment differences” and the “Spontaneous proliferation by unstimulated PBMC” value ([2]; cats) was “did not significantly influence”. For the same molecule, the “PWM-stimulated PBMC proliferation (increased)” value ([2]; cats fed 1 mg lutein, week 4, 0.025 μg/mL PWM) was “differences were significant”, the “PBMC proliferative response to Con A” value ([2]; cats fed 10 mg lutein, Con A 2.5 μg/mL, week 4) was “significantly higher” and the “PWM-stimulated PBMC proliferation (increased)” value ([2]; cats fed 1 and 10 mg lutein, week 4, 0.125 μg/mL PWM) was “differences were significant”. For the same molecule, the “Tritiated thymidine uptake, average” value ([2]; cats, 0.25 μg/mL PHA) was 1,934±147 cpm, the “Tritiated thymidine uptake, average” value ([2]; cats, 1.25 μg/mL PHA) was 6,464±504 cpm and the “PBMC proliferative response to Con A” value ([2]; cats, Con A 2.5 μg/mL, week 8 and 12) was “treatment differences were not observed”. The “PBMC proliferative response to Con A” value ([2]; cats, suboptimal dose (0.5 μg/mL) of Con A) was “No significant treatment difference”, the “PHA-induced PBMC proliferation” value ([2]; cats, throughout the study) was “no significant dietary effects” and the “Spontaneous proliferation by unstimulated PBMC, average” value ([2]; cats, throughout the study) was 1,744±147 cpm. For the same molecule, the “Total number of T cells (CD3)” value ([3]; cats) was “did not influence significantly”, the “Percentage of CD21+ B cells” value ([3]; cats fed 10 mg lutein, week 12) was “significantly elevated” and the “Percentage of CD8+ T cytotoxic cells” value ([3]; cats, any of the time periods) was “not influenced significantly”. The “Percentage of MHC class II+ cells” value ([3]; cats, any of the time periods) was “not influenced significantly”, the “Ratio of CD4:CD8” value ([3]; cats, any of the time periods) was “not influenced significantly” and the “Effect on NK cell cytotoxic activity” value [4] was “did not significantly influence”. The “Specific lysis of target cells by PBMC, average” value ([4]; across all treatments and sampling periods, E:T 10:1) was 49.1±1.1%.
